We go through 6 compounds from patent US9527876B2, “Prodrugs of bicyclic substituted pyrimidine type PDE-5 inhibitors” (Xuanzhu Pharma Co., Ltd., priority 2013, dated 2016).

Data set [1] in a line: Rat pharmacokinetics after intragastric administration (LC-MS/MS of plasma). The following applies: for F: rats, intragastric, absolute bioavailability. The data set is classed as in vivo, rats. The text has this:
Instrument and equipment: API4000 LC-MS/MS

The target in a further data set is T1, PDE-5 (Homo sapiens, UniProt O76074).
T1 construct: PDE-5 source, human platelets; from tissue; host or cells: human platelets
Description: Scintillation counter (Topcount) PDE-5 enzyme assay. It is filed as biochemical.

For data set [2] the following is noted: rat, in vivo, iv, 1 mg/kg.
Description: (§1) Chromatographic column: Agilent XDBC18(2.1×50 mm, 5 μm)
(§2) Rat blood collection: animal was fixed, heated at tail with water-bath 10 min before each time point, about 200 μL of blood was collected from caudal vein, and the collected blood was placed in anticoagulative tube containing heparin sodium. Blood sample was centrifuged under 8000 rpm at 4° C. for 6 min to obtain plasma sample, and the plasma must be prepared within 30 min after blood collection. The plasma was stored in −80° C. refrigerator before test.
(§3) Experimental Method • 1) Take a sample to be tested from refrigerator (−80° C.), melt in situ at room temperature, then eddy for 5 min; • 2) Precisely move 20 μL of sample into 1.5 mL centrifuge tube; • 3) Add 200 μL of internal standard solution; • 4) Eddy for 3 min, then centrifuge for 5 min (12000 rpm); • 5) Precisely move 50 μL of supernatant and add into 150 μL of water, eddy for 3 min, and load to LC-MS/MS for analysis.
(§4) Test sample (plasma sample) concentrations were output by using Analyst 1.5.1 of AB Company. […] Mean values, standard deviation and variable coefficient (those directly outputed by Analyst 1.5.1 were not calculated), were calculated by Microsoft Excel. PK parameter was calculated by using software Pharsight Phoenix 6.2.
(§5) Wherein T1/2 represents half-life period; AUCinf represents area under drug-time curve 0→∞; CL represents clearance rate; Vss represents apparent volume of distribution; Cmax represents peak concentration of the compound in plasma; Tmax represents the time at which the compound reached the peak concentration; F % represents absolute bioavailability.
For data set [3] the following is noted: in vivo, background statement; cited from earlier work.
The next data set is described as follows: in vivo. Conditions: rat, iv, 2 mg/kg.
Data set [4] is described as follows: Solubility of Compound 1 in buffer solutions of different pH (visual observation). The data set is classed as physicochemical. The following applies: for solubility at 5 min: aqueous buffer, thermodynamic from solid. The protocol: 1. Method for preparing sample of Compound 1, 6 parts of test sample were precisely weighed, each was 2 mg and was separately added to 40 μL of buffer solutions of pH 4, pH 5, pH 6, pH 7, pH 8, pH 9, respectively. Jolted (ultrasonic treatment for 5 min) and detected by visual observation.
1.02 g of potassium hydrogen phthalate was weighed, added to 0.05 mL of 0.2 mol/L hydrochloric acid solution and an appropriate amount of water for dissolution, diluted by adding water to 100 mL, mixed homogeneously to obtain the subject solution.
1.02 g of potassium hydrogen phthalate was weighed, added to 11.3 mL of 0.2 mol/L sodium hydroxide solution and an appropriate amount of water for dissolution, diluted by adding water to 100 mL, mixed homogeneously to obtain the subject solution.
0.68 g of potassium dihydric phosphate was weighed, added to 2.8 mL of 0.2 mol/L sodium hydroxide solution and an appropriate amount of water for dissolution, diluted by adding water to 100 mL, mixed homogeneously to obtain the subject solution.
0.68 g of potassium dihydric phosphate was weighed, added to 14.55 mL of 0.2 mol/L sodium hydroxide solution and an appropriate amount of water for dissolution, diluted by adding water to 100 mL, mixed homogeneously to obtain the subject solution.
0.75 g of potassium chloride and 0.62 g of boric acid were weighed, added to 3.9 mL of 0.2 mol/L sodium hydroxide solution and an appropriate amount of water for dissolution, diluted by adding water to 200 mL, mixed homogeneously to obtain the subject solution.
0.75 g of potassium chloride and 0.62 g of boric acid were weighed, added to 20.8 mL of 0.2 mol/L sodium hydroxide solution and an appropriate amount of water for dissolution, diluted by adding water to 200 mL, mixed homogeneously to obtain the subject solution.

Data set [5] in a line: Rat pharmacokinetics after intravenous injection (LC-MS/MS of plasma). The following applies: for concentration at 0.083 h: 1 mg/kg, Concentration of Compound 1 in rat body.
Description: as §1, §2, §3, §4, §5
A short description of data set [6]: Solubility in ultrapure water (visual observation). The data set is classed as physicochemical. The protocol: Method for preparing samples of Compounds 4, 4-A, Compounds 9, and 9-B: 2 mg of test sample was taken, gradually added to ultrapure water, treated with ultrasound for 5 min each time until the sample was completely dissolved by visional observation.

Data set [7] in a line: Solubility of Compound Q in buffer solutions of different pH (HPLC). The data set is classed as physicochemical. The following applies: aqueous buffer, thermodynamic from solid, 1 mg in 1 mL, read-out: Measured concentration (solubility). The protocol:
2. Method for preparing sample of Compound Q, 4 parts of test sample were precisely weighed, each was 1 mg and was separately added to 1 mL of buffer solutions of pH 3, pH 5, pH 7, pH 9, treated with ultrasound for 5 min and filtered through 0.45 μm organic filtration membrane. The filter liquors were used as test sample solutions. 10 μL of each was injected into high performance liquid chromatograph, and peak areas were recorded.
4.88 mg of test sample was precisely weighed, placed in 10 mL volumetric flask, added to 1 mL of methanol for dissolution, then diluted with methanol to constant volume to obtain a solution containing 0.488 mg of control per 1 mL, which was used as mother liquor A. The mother liquor A was gradually diluted with methanol to obtain control solutions containing 0.0488 mg or 0.00976 mg per 1 mL.
Linear regression was performed by using control concentration (C) as abscissa, and peak area (Y) as ordinate so as to obtain a linear equation. The concentrations of test sample solutions were obtained by putting the peak areas of test sample solutions into the linear equation.
The control linear equation of Compound Q is: Y=24262C, correlation coefficient r=1.0000.
Instrument and equipment: Agilent 1200 HPLC
Chromatography column: YMC-Pack-Pro C18(150×4.6 mm, 5 μm)
Buffer solution: 0.02 mol/L ammonium dihydrogen phosphate (added 0.2% triethylamine, and regulated with phosphoric acid to pH=6.0)
Phase A: acetonitrile-buffer solution=[…], Phase B: acetonitrile-buffer solution=80:20
Mobile phase: Phase A: Phase B=65:35
Detection wavelength: 254 nm Sample size: 10 μL

For data set [8] the following is noted: in human, background statement; cited from earlier work.

In brackets after ≈: the same amount, converted by molar mass. Where two headings read alike, the source gives them in different places.

Description for in vivo: as §1, §2, §3, §4, §5

One may read the IC50 as the point on the concentration scale where inhibition reaches its midpoint. A higher IC50 goes with lower potency. By Vd is commonly meant the apparent volume that relates the amount in the body to the concentration in plasma or blood. In general, clearance refers to the rate of elimination divided by the concentration. `COc1ccc(CN=c2[nH]c(N3CCC[C@H]3CO)ncc2C(=O)NCc2ncccn2)cc1Cl` [Avanafil] returned a F in [1] (dose 2 mg/kg (Table 5)) of 4.5%. The IC50 against PDE-5 amounted to 3.1 nM. In data set [2], this compound registered an AUCinf of 382 ng·h/mL and a T1/2 of 30 min. Besides, in data set [3], the half-life entry is recorded as “about 1.2 h”. Further, in “in vivo”, the Vd came out at 3.56 L/kg and the clearance was 88.5 mL/min/kg.
Consider `COc1ccc(CNc2nc(N3CC4CC4C3)ncc2C(=O)N[C@H]2CC[C@H](OP(=O)([O-])[O-])CC2)cc1Cl.[Na+].[Na+]` (stereo partly drawn) [Compound 1, N-trans-4-(2-(3-azabicyclo[3.1.0]hexan-3-yl)-4-(3-chloro-4-methoxybenzylamino)pyrimidine-5-carboxamido)cyclohexyl phosphate disodium salt], for which, in data set [1] (after intragastric administration (PO), LC-MS/MS), the “Plasma detection of Compound 1 at each time point” value is “not detected”. The solubility at 5 min was no less than 50000 µg/mL in [4] (buffer solution pH 5, 2 mg in 40 μL); no less than 50000 µg/mL in data set [4] (buffer solution pH 6, 2 mg in 40 μL); no less than 50000 µg/mL in [4] (buffer solution pH 7, 2 mg in 40 μL); no less than 50000 µg/mL in data set [4] (buffer solution pH 8, 2 mg in 40 μL); no less than 50000 µg/mL in [4] (buffer solution pH 9, 2 mg in 40 μL). For the same compound, the “Solubility, in words” value in data set [4] (buffer solution pH 4, compared with pH 5 to 9) is “decreased”. For the same compound, the Phenomenon on dissolution entry in data set [4] (buffer solution pH 4, 2 mg in 40 μL) is listed as “precipitated after about 5 min”. The “Plasma detection of Compound 1 at all other time points” value in data set [5] (after IV injection, time points other than 0.083 h, LC-MS/MS) is “could not be detected”. Further, the concentration at 0.083 h in data set [5] (rat, plasma, iv, Mean, IV 1 mg/kg, mean of 3 rats) came out at 165 ng/mL; in data set [5] (rat, plasma, iv, Rat 1, IV 1 mg/kg, Rat 1) it was 162 ng/mL; in data set [5] (rat, plasma, iv, Rat 2, IV 1 mg/kg, Rat 2), 183 ng/mL; in [5] (rat, plasma, iv, Rat 3, IV 1 mg/kg, Rat 3), 151 ng/mL. Moreover, the “Time of conversion of prodrug Compound 1 into Compound Q” value in data set [5] (rats, after IV injection) is listed as no more than 0.083 h.
`COc1ccc(CNc2nc(N3CCC4(CC4)C3)ncc2C(=O)N[C@H]2CC[C@H](OP(=O)([O-])[O-])CC2)cc1Cl.[Na+].[Na+]` [Compound 4, N-trans-4-(4-((3-chloro-4-methoxybenzyl)amino)-2-(5-azaspiro[2.4]heptan-5-yl)pyrimidine-5-carboxamido)cyclohexyl phosphate disodium salt]: in data set [6], the “Solubility in water relative to original drug Compound 4-A” value turned out to be 2000 times. The solubility at 5 min in [6] (thermodynamic from solid, ultrasound 5 min) is no less than 200000 µg/mL.
With `COc1ccc(CNc2nc(N3CC4CC4C3)ncc2C(=O)N[C@H]2CC[C@H](O)CC2)cc1C` (stereo partly drawn) [Compound 9-B, 2-(3-azabicyclo[3.1.0]hexan-3-yl)-N-(trans-4-hydroxycyclohexyl)-4-(4-methoxy-3-methylbenzylamino)pyrimidine-5-carboxamide], in data set [1] (dose 5 mg/kg (Table 5)), the F came out at 65%. For the same compound, in [5] (rat, plasma, iv, 2 mg/kg), the Vd is 4.48 L/kg and the clearance was 13 mL/min/kg.
`COc1ccc(CNc2nc(N3CC4CC4C3)ncc2C(=O)N[C@H]2CC[C@H](O)CC2)cc1Cl` (stereo partly drawn) [Compound Q, 2-(3-azabicyclo[3.1.0]hexan-3-yl)-4-(3-chloro-4-methoxybenzylamino)-N-(trans-4-hydroxycyclohexyl)pyrimidine-5-carboxamide]: the solubility at 5 min was found to be 371 µg/mL (≈ 786 µM) in data set [7] (buffer solution pH 3), 0.276 µg/mL (≈ 0.585 µM) in data set [7] (buffer solution pH 5), 0.124 µg/mL (≈ 0.263 µM) in data set [7] (buffer solution pH 7) and 0.128 µg/mL (≈ 0.271 µM) in [7] (buffer solution pH 9).
For the compound `CN1CC(=O)N2[C@H](c3ccc4c(c3)OCO4)c3[nH]c4ccccc4c3C[C@@H]2C1=O` [Tadalafil], the half-life entry in data set [8] was “about 16 h”.
